The results in this text go back to paper PMC12362764, “Novel Cyano‐Artemisinin Dimer ZQJ29 Targets PARP1 to Induce Ferroptosis in Pancreatic Cancer Treatment” (Advanced Science, 2025).

SMILES strings stand for the structures.

In data set [1] the test system is PANC-1 and KP4 cells. As to the kind of experiment: Mitochondrial membrane potential assay (JC-1). It is filed as cell-based. The conditions noted are these: 24 h. As to the method:
Mitochondrial membrane potential assay kits with JC‐1 (Beyotime, Shanghai, China) were used to measure the alteration of mitochondrial membrane potential (ΔΨm). After being treated with different concentrations of ZQJ29 (0, 1, 2.5, and 5 µM) for 24 h, cells were treated with the positive control reagent CCCP (10 µM) for 30 min at 37 °C. The cells were rinsed once with PBS, and the JC‐1 staining working solution was added for 30 min at 37 °C in the dark. Afterward, the cells were washed twice with 1 × JC‐1 staining buffer. Fluorescent images of the JC‐1‐stained cells were captured with a fluorescence microscope Cytation5 (BioTek, America).

Data set [2] deals with HEK-293T. As to the kind of experiment: CCK-8 cytotoxicity assay, HEK-293T (normal cell line). It is filed as cell-based. The note with it: Homo sapiens, 72 h. As to the method:
(§1) Cell viability was evaluated using the Cell Counting Kit‐8 (Beyotime, Shanghai, China) assay. Cells were seeded in 96‐well plates at a density of 2×10^3 cells to allow for attachment. After treatment with ZQJ29 (0.001, 0.01, 0.1, 10, and 25 µM) for 24, 48, and 72 h, 10 µL of CCK‐8 solution was added to each well and incubated for 1 h. The optical density values were then measured at 450 nm using a multifunctional enzyme‐linked immunosorbent assay reader (Tecan, Spark, Switzerland).
A general note: Formazan colour is commonly taken as a measure of viable cells.

In data set [3] the test system is HCT116. Description: CCK-8 cytotoxicity assay, HCT116. It is filed as cell-based. The conditions noted are these: Homo sapiens, HCT-116; HCT116, 72 h. The procedure: as §1
The nature of data set [4]: Pharmacokinetic study after intragastric administration. It is filed as in vivo, Sprague-Dawley (SD) rats. The conditions noted are these: rat, 50 mg/kg i.g. As to the method:
Male Sprague‐Dawley (SD) rats (200 ± 20 g) were purchased from Beijing Vital River Laboratory Animal Technology Co., Ltd. (Beijing, China). After a one‐week acclimatization period, the rats were injected intragastrically with ZQJ29 (50 mg kg^−1). Blood samples were collected from the jugular veins after the injection of ZQJ29 (at 5, 10, 20, 40, 60, 120, 240, 360, 720, and 1440 min). The whole blood was centrifuged at 4000 × g for 10 min at 4 °C. Plasma was extracted with MeOH by vortexing for 10 min. After centrifugation for 12 min at 12 000 × g at 4 °C, the supernatant was analyzed using an HPLC‐MS/MS system. The concentration of ZQJ29 was quantitatively measured by the external standard method. Pharmacokinetic parameters were calculated using Drug and Statistic (DAS, version 2.0) software based on the compartmental method.

Data set [5] has as its system A549. Description: CCK-8 cytotoxicity assay, A549. It is filed as cell-based. The conditions noted are these: Homo sapiens, A549, 72 h. As to the method:
as §1

In data set [6] the test system is PANC-1 cells. Description: Cell cycle analysis (PI, flow cytometry), PANC-1. It is filed as cell-based. The note with it: PANC-1, 24 h. As to the method: PANC‐1 and KP4 cells were placed in 6 cm dishes and exposed to designated concentrations of ZQJ29 (1 µM) for 24 h before trypsinization. After centrifugation, the cells were secured and preserved in ice‐cold 70% ethanol and stored at 4 °C for 24 h. They were then thoroughly washed with PBS multiple times. Next, the fixed cells were incubated in PBS supplemented with RNase and PI solution for 30 min at 37 °C, protected from light exposure. Cell cycle progression was assessed using a flow cytometer. This experimental procedure was systematically conducted in three separate trials, with each trial done in triplicate. Cell cycle kits were obtained from Beyotime (Shanghai, China).

For data set [7], the system named is JHH7. As to the kind of experiment: CCK-8 cytotoxicity assay, JHH7. It is filed as cell-based. The conditions noted are these: JHH7, 72 h. As to the method:
as §1

A short description of data set [8]: Toxicity in tumor-bearing mice (body weight, ALT/AST, H&E). It is filed as in vivo, BALB/c nude mice. As to the method:
Five‐week‐old male BALB/c nude mice were purchased from Shanghai Jihui Laboratory Animal Breeding Co., Ltd. (Shanghai, China). After a one‐week acclimatization period, PANC‐1 cells were subcutaneously injected at a dose of 5 × 10^6 cells per mouse. Four weeks post‐injection, once tumor volumes reached 50–100 mm^3, the tumor‐bearing animals were randomly divided into four groups, each consisting of six animals. ZQJ29 was prepared in a 0.5% CMC‐Na solution, while OXA was dissolved in saline. The control group was treated with oral gavage of 0.5% CMC‐Na, while the positive control group was administered intraperitoneal injections of OXA at a dosage of 3 mg kg^−1 every three days. The test groups were treated with oral gavage of ZQJ29 at dosages of 25 and 50 mg kg day^−1. Mouse weights were monitored every other day. Tumor measurements were taken every other day using calipers, and the tumor volume was calculated using the following formula: ½ × length × width^2. Drug administered continued for three weeks. After blood collection at the end of the administration, the mice were humanely euthanized, and their vital organs were promptly harvested, preserved, and embedded in paraffin for H&E staining.
Following the experiments, organs from mice, including hearts, livers, spleens, lungs, and kidneys were swiftly collected and fixed in 4% paraformaldehyde overnight. The tissues were then embedded in paraffin. Afterward, 4‐µm‐thick sections were produced and stained using H&E. Images of these sections were captured with a Leica DM4000b microscope (Germany).
Blood samples were collected and placed in a biochemical incubator for 30 min, followed by centrifugation at 6000 rpm for 10 min. The supernatant was used to measure the following indicators: ALT and AST (both from Jiancheng, Nanjing, China).

For data set [9], the system named is H1975. Description: CCK-8 cytotoxicity assay, H1975. It is filed as cell-based. The note with it: Homo sapiens, NCI-H1975, 72 h. As to the method: as §1
The subject of data set [10] is PARP1, TP53, SLC7A11, and GPX4. Description: Western blot of PARP1, TP53, SLC7A11 and GPX4 in cells. It is filed as cell-based. The conditions noted are these: PANC-1 and KP4 cell lines, dose-dependent. As to the method:
For western blotting analysis, ZQJ29‐treated cells were lysed with RIPA Lysis Buffer (Yeasen, Shanghai, China) containing protease and phosphatase inhibitors (Yeasen, Shanghai, China) on ice. The cell lysates were quantified using the BCA Protein Assay Kit (Beyotime, Shanghai, China). Samples were subjected to SDS‐PAGE and transferred to PVDF membranes (Beyotime, Shanghai, China). The membranes were blocked with 5% nonfat milk in TBST (Buffered Saline with 0.1% Tween 20) for 1 h, followed by overnight incubation at 4 °C with primary antibodies. After washing the membranes three times with TBST, they were incubated with the appropriate secondary antibodies for 2 h at room temperature. Following another three times with TBST, the bands on the membranes were detected using the ECL‐Plus Western Blotting Detection System (Yeasen, Shanghai, China).

Where [11] appears, read: male, Sprague-Dawley, plasma, po, n = 6.

What is called IC50 is the concentration at which inhibition is half-maximal. The low end stands for higher potency, the high end for lower potency. Broadly, the AUC(0-t) is exposure summed from dosing to a finite time, without extrapolation to infinity. What is called Cmax is the maximum level reached in the sampled fluid or tissue. The term half-life denotes how long it takes for the measured level to halve. The low end stands for fast loss, the high end for slow loss. Regarding `CC1CCC2C(C)C(OCCN(C#N)CCOC3OC4OC5(C)CCC6C(C)CCC(C3C)C46OO5)OC3OC4(C)CCC1C32OO4` (stereo not drawn) [ZQJ29], the “mitochondrial membrane potential (MMP), JC-1” value in data set [1] is listed as “decrease in MMP”. Moreover, the IC50 is more than 10000 nM in [2]; 1020 ± 500 nM in [3]; more than 10000 nM in data set [5]; 791 ± 305 nM in [7]; 2190 ± 113 nM in data set [9]. The compound further registered an AUC(0-t) in data set [4] (setting [11]) of 40 ± 16.3 ng·h/mL. In [4] (setting [11]), this compound yielded a Cmax of 11.8 ± 6.05 ng/mL. In addition, in data set [4] (male, Sprague-Dawley, plasma, po, n = 6, read-out: MRT0-t), the MRT last was 2.74 ± 0.46 h. Further, the MRT inf in [4] (male, Sprague-Dawley, plasma, po, read-out: average residence time (MRT0-inf)) is 2.74 h. Also, the half-life in data set [4] (male, Sprague-Dawley, plasma, po, 50 mg/kg, n = 6) is 1.58 ± 0.26 h. The t1/2 in [4] (n = 6, 50 mg/kg) amounted to 1.6 h. For the same compound, in [6], the cell cycle arrest entry is given as “remarkable G2/M phase arrest”. The “post-experiment levels of ALT and AST” value in data set [8] (ZQJ29 50 mg/kg, OXA 3 mg/kg i.p.) was “no significant alterations”. In addition, the “major organ damage (H&E staining)” value in data set [8] (hearts, livers, spleens, lungs, kidneys) is “no significant major organ damage”. Further, the “body weight during the whole treatment period” value in [8] (tumor-bearing nude mice, three weeks) is recorded as “remained stable”. The “expression of PARP1, SLC7A11 and GPX4” value in data set [10] was “downregulated”. In data set [10], the “expression of TP53” value was “upregulated”.
